Test results: patent publication US10967047B2, “Mitochondrial antiviral-signaling (MAVS) polypeptides and detection and use thereof” (University of Vermont and State Agricultural College, priority 2016, dated 2021)

What was measured:
MAVS [1] = assay: MAVS oligomerization in human PBMC and plasma (semi-denaturing agarose gel electrophoresis); format: cell-based
Description: MAVS-deficient and matching WT MEFs, gift of Z. J. Chen (Z. J. Chen et al. (2005) Cell 122, 669-682), were maintained in Dulbecco's modified Eagle's medium (DMEM) (Hyclone), supplemented with 10% heat-inactivated fetal calf serum (FCS) (Hyclone), 100 mM L-glutamine (Cellgro Mediatech), and 10,000 units/mL penicillin/10 mg/mL streptomycin sulfate (Life Technologies). C57BL6 or B6; 129-Mavstm1Zjc/J mice (The Jackson Laboratory, Bar Harbor, Me.) were maintained at the University of Vermont under a protocol approved by the Institutional Animal Care and Use Committee. Murine BMDCs were prepared as described by Inaba et al. (K. Inaba et al., (1992) Journal of Experimental Medicine 176, 1693-1702). In brief, cells derived from femur bone marrow were cultured at a density of 5×10^5/mL in 10-cm plates in RPMI 1640 (HyClone), supplemented with 5% heat-inactivated FCS, 100 mmol L-glutamine, 100 mmol sodium pyruvate, 10,000 units/mL penicillin/10 mg/mL streptomycin sulfate, 5×10^−5 mol 2-mercaptoethanol (Sigma, St. Louis, Mo.), and 10 μg/mL GM-CSF (Life Technologies). Human subjects were enrolled under a protocol approved by the University of Vermont Institutional Review Board. Samples from 17 SLE patients fulfilling the American College of Rheumatology diagnostic criteria were studied (E. M. Tan et al., (1982) Arthritis and Rheumatism 25, 1271-1277). 16 out of 17 patients were female, and the age of study participants was 47±3. The disease activity was assessed by the SLE disease activity index (SLEDAI) scores, ranging from 0 to 10 (C. Bombardier et al., (1992) Arthritis and Rheumatism 35, 630-640). Upon informed consent, primary human PBMCs were obtained from heparinized whole-blood samples from SLE patients. Control PBMCs were generated from age-, sex-, and ethnicity-matched healthy subjects. PBMCs were isolated using standard Ficoll gradient centrifugation as previously described (R. Mallone et al., (2011) Clin. and Exp. Immunol. 163, 33-49). Cells were either used immediately to prepare lysates for immunoblotting or cultured at a density of 5×10^5/mL in a 12-well culture plate with RPMI 1640 (HyClone), supplemented with 5% heat-inactivated FCS, 100 mmol L-glutamine, 100 mmol sodium pyruvate, and 10,000 units/mL penicillin/10 mg/mL streptomycin sulfate. Enriched monocytes from PBMCs were used to prepare hDCs using negative magnetic bead selection (Miltenyi), and were subsequently cultivated for 6 d in 10 μg/mL GM-CSF and 500 U/mL IL-4. All cells were maintained in a humidified chamber at 37° C. and 5% CO2.
(§1) SDD-AGE was performed according to a published protocol with minor modifications (Alberti et al., (2009) Cell 137, 146-158). In brief, mitochondria were resuspended in sample buffer (0.5×TBE, 10% glycerol, 2% SDS, and 0.0025% bromophenol blue) and loaded onto a vertical 1.5% agarose gel. After electrophoresis in the running buffer (1×TBE and 0.1% SDS) for 35 min with a constant voltage of 75 V at 4° C., proteins were transferred to PVDF membranes using a Trans-Blot Turbo Transfer System (BioRad) for immunoblotting.
PVDF membranes were blocked in 5% solution of nonfat powdered milk in Tris-buffered saline. Antibodies used were specific for MAVS and Actin (Santa Cruz); RIPK1 and TRAF2 (BD Biosciences); TANK, TRADD, RIG-I, and GAPDH (Cell Signaling); MDAS and COX4 (Abcam), Alexa 488 (Life Technologies), and IRF3 (Thermo Fisher), respectively. […] Chemiluminescence was detected and recorded using a Biorad Chemidoc instrument. […]

MEFs = assay: IFN-I and IL-6 cytokine secretion by ELISA in MEF culture supernatants; format: cell-based, mouse
Description: ELISA was used to measure cytokine concentration in supernatant from cultured MEFs and BMDCs, and in sera of SLE patients and healthy control subjects. For assays, samples were centrifuged and IFN-β and IL-6 levels were measured in triplicate using murine or human ELISA kits according to the manufacturer's instructions. (PBL Biosciences). The fold change in IFN-I or IL-6 cells was calculated by directly comparing mock versus virus or chemical inducer of ROS.

Drp1 = assay: Phosphorylated Drp1 (Drp1 616p) at purified mitochondria, densitometry normalized to Cox IV; format: cell-based
Description: To activate MAVS commercially available 5′-ppp-RNA was used at a concentration of 1 μg/ml, which activates RIG-I helicase. As an alternative GOx was used as previously described [Szeto, H. H., Br J Pharmacol, 2014. 171(8): p. 2029-50]. Mitochondria were purified by anti-Tom22 magnetic beads as previously described [Perl, A., et al., Int Rev Immunol, 2004. 23(3-4): p. 293-313]. Changes in the level of Drp1^616p at mitochondria were determined by densitometry, which was normalized to the level of Cox IV (FIG. 14A-B).

MAVS [2] = assay: MAVS oligomerization in MEFs (semi-denaturing gel electrophoresis, immunoblot, densitometry); format: cell-based, mouse
Description: 5′ triphosphate double-stranded RNA (5′-ppp-dsRNA), a synthetic ligand for RIG-I, was purchased from InVivoGen and used at a concentration of 1 μg/mL. Mitochondria-targeted antioxidant MitoQ and the mitochondria-targeted superoxide generator MitoPQ, were gifts of M. Murphy (G. F. Kelso et al., (2001) The Journal of biological chemistry 276, 4588-4596). The control reagent TPP was purchased from Sigma. Reagents were added to cells at concentrations as indicated. GOx was purchased from Sigma and added to cultured cells at a final concentration of 0.1 U/mL. Iodoacetamide was from Thermo Fisher, and used at a final concentration of 100 μM.
Cultured MEFs or human PBMCs were lysed in a sample buffer containing 2% SDS and insoluble cell fragments were removed by centrifugation. Plasma samples derived from SLE patients were collected and stored at −20° C. until gel electrophoresis. BCA protein assay (Thermo Scientific) was used to determine protein concentrations in all samples were resolved with SDS-PAGE under denaturing conditions. Gels were transferred to PVDF membranes using a Trans-Blot Turbo Transfer System (BioRad).
as §1
PVDF membranes were blocked in 5% solution of nonfat powdered milk in Tris-buffered saline. Antibodies used were specific for MAVS and Actin (Santa Cruz); RIPK1 and TRAF2 (BD Biosciences); TANK, TRADD, RIG-I, and GAPDH (Cell Signaling); MDAS and COX4 (Abcam), Alexa 488 (Life Technologies), and IRF3 (Thermo Fisher), respectively. Immunoreactive proteins were visualized using HRP-labeled conjugates (Jackson Immuno Research) and developed using Clarity Western ECL substrate (Biorad). Chemiluminescence was detected and recorded using a Biorad Chemidoc instrument. Densitometric measurements were performed in Image Lab image acquisition and analysis software (Biorad).

Row | Compound | GOx-induced MAVS oligomerization in PBMCs after pretreatment (MAVS [1]; healthy-donor PBMCs pretreated with MitoQ or grown in presence of β-Me, then GOx (FIG. 4A)) | IFN-I secretion with MitoQ (MEFs; MEF with or without MitoQ, GOx or SINV (FIG. 3D)) | level of phosphorylated Drp1 at mitochondria with MitoQ pre-treatment (Drp1; same cells pre-treated with MitoQ, versus 5′-ppp-RNA or GOx alone (FIG. 14A-B)) | decrease in MAVS oligomers (MAVS [2]; MEFs pre-treated with 100 μM MitoQ, then GOx, oligomer/monomer ratio by densitometry (FIG. 3B)) | decrease in MAVS oligomerization (MAVS [2]; MEFs pre-treated with 100 μM MitoQ, then SINV infection, densitometry (FIG. 3B)) | MAVS oligomerization after pretreatment (MAVS [2]; MEFs pretreated (100 μM) before GOx or SINV (FIG. 3A)) | induction of MAVS oligomerization in PBMCs (MAVS [1]; healthy-donor PBMCs treated with GOx (FIG. 4A)) | IFN-I secretion induced by the substance (MEFs; MAVS-WT MEFs, not observed in MAVS-KO (FIG. 2E, 2J)) | IL-6 secretion induced by the substance (MEFs; MAVS-WT MEFs, not observed in MAVS-KO (FIG. 2F, 2K)) | level of phosphorylated Drp1 at mitochondria after MAVS activation (Drp1; 5′-ppp-RNA 1 μg/ml or GOx (FIG. 14A-B)) | induction of MAVS oligomerization without viral infection (MAVS [2]; MEFs, substance alone (MitoPQ 1 to 10 nM, FIG. 2H; GOx, FIG. 2A))
1 | COC1=C(OC)C(=O)C(CCCCCCCCCC[P+](c2ccccc2)(c2ccccc2)c2ccccc2)=C(C)C1=O.CS(=O)(=O)[O-] [MitoQ, [10-(4,5-Dimethoxy-2-methyl-3,6-dioxo-1,4-cyclohexadien-1-yl)decyl](triphenyl)phosphonium methanesulfonate] | MAVS oligomerization did not occur | reduced IFN-I secretion | higher levels | ≥ 80% | ~40% | reduced MAVS oligomerization | – | – | – | – | –
2 | glucose oxidase [GOx] | – | – | – | – | – | – | induced pronounced MAVS oligomerization | increased secretion | increased secretion | lower levels of phosphorylated Drp1 at mitochondria | sufficient to induce MAVS oligomerization
